Measurements taken from patent US11498900B2, “Salts of an LSD1 inhibitor” (Incyte Corporation, priority 2015, dated 2022).

Legend:
Format in all cases: physicochemical
[1] = Solid form conversion on storage or exposure to humidity
Description: Form HI of Compound I di-tosylate salt was prepared during the process of drying a wet sample of Compound I di-tosylate salt, Form I, under ambient conditions. […] Form HI can also be generated by purging humidified air (e.g., 60-85% RH) through Form I solid.
Form HIII was prepared by drying Form HI on Vapor Sorption Analyzer (TA Instruments VTI-SA^+) at 40° C. with 0% RH N2 for 3 h and then exposing it to humidity at about 30-50% RH at 25° C. for 1 day.
Form DH was prepared by drying Form HI on Vapor Sorption Analyzer (TA Instruments VTI-SA*) at 25° C. with 0% RH N2 for 2 days.

[2] = Dynamic vapor sorption (DVS) analysis; settings: 25° C.; for Hygroscopicity (DVS adsorption/desorption isotherm): bis(4-methylbenzenesulfonate)
Description: Form I was characterized by DVS. The DVS analysis was performed on a TA Instruments Vapor Sorption Analyzer, model VTI-SA^+. The sample was pre-dried on VTI at 50° C. with 0% RH N2 for 1 h. Then the moisture uptake profile was completed in one cycle in 5% RH increments with adsorption from 0% RH to 95% RH followed by desorption in 5% increments from 95% to 5% RH. The equilibration criteria were 0.0050 wt % in 5 minutes with a maximum equilibration time of 180 minutes. All adsorption and desorption were performed at 25° C.
Form HI was characterized by DVS. The DVS analysis was performed on a TA Instruments Vapor Sorption Analyzer, model VTI-SA^+. The moisture uptake profile was completed in one cycle in 5% RH increments with adsorption from 35% RH to 95% RH followed by desorption in 5% increments from 95% to 5% RH. The equilibration criteria were 0.0010 wt % in 5 minutes with a maximum equilibration time of 180 minutes. All adsorption and desorption were performed at 25° C. No pre-drying step was applied for the sample.
Form DH was characterized by DVS. The DVS analysis was performed on a TA Instruments Vapor Sorption Analyzer, model VTI-SA^+. Form DH was generated by pre-drying Form HI on VTI at 40° C. with 0% RH N2 for 3 h. Then the moisture uptake profile was completed in one cycle in 5% RH increments with adsorption from 0% RH to 95% RH followed by desorption in 5% increments from 95% to […]. The equilibration criteria were 0.0010 wt % in 5 minutes with a maximum equilibration time of 180 minutes. All adsorption and desorption were performed at 25° C.

[3] = Physical stability of Form HI under different humidity conditions
Description: Physical stability of Form HI was studied under different humidity conditions. The humidity was controlled at 25° C. using Vapor Sorption Analyzer (TA Instruments, Model VTI-SA*). Approximately 20 mg of Form HI in the sample holder was placed inside the humidity chamber of the instrument and held under constant humidity. A sample in an open glass vial was also set up under ambient conditions. After a certain period of time, the sample was removed and characterized by XRPD, DSC, and TGA. Weight loss by TGA was mostly associated with loss of water. The experimental parameters of XRPD, DSC, and TGA are analogous to those in Example 6 for Form HI.
Form HI was stable for 10 days under humidity conditions of 10-85% RH and was stable for 60 days under ambient conditions. […] The table below provides the data for the physical stability of Form HI at 25° C. (open vial).

[4] = Competitive slurry experiment, relative stability of polymorph forms; settings: in butanone and butanone/heptane (1:1)
Description: In order to evaluate the relative stability relationship of the various Compound I di-tosylate polymorph forms, a competitive slurry experiment with a mixture of Form I, II, III and IIIa through Form XII was conducted in butanone-heptane at 50° C. according to Procedure 1 below and in butanone at 25° C. according to Procedure 2 below. The mixture of thirteen polymorphs was converted to Form I after stirring in butanone/heptane (1:1) at 50° C. for 6-18 hours and after stirring in butanone at 25° C. for 6-18 hours.
Procedure 1 competitive experiment in butanone-heptane at 50° C.:
Procedure 2 competitive experiment in butanone at 25° C.: […]

[5] = Concentration of saturated solution in ethanol
Description: In one experiment, Form IIIa was prepared by adding 0.4 mL of saturated solution of Form I in ethanol (60 mg/mL) to 3.0 mL of IPAc. The resulting solid was filtered. Form IIIa was also prepared according to the procedure set forth in Example 13 using EtOH/IPAc as a solvent pair.
In one experiment, Form X was prepared by adding 0.3 mL of saturated solution of Form I in ethanol (60 mg/mL) to 2.5 mL of heptane. The resulting solid was filtered. Form X was also prepared according to the procedure set forth in Example 13 using EtOH/heptane as a solvent pair.

[6] = Thermogravimetric analysis (TGA), decomposition; settings: ramp 20° C. to 600° C. at 20° C./min, nitrogen
Description: Form I was characterized by TGA. The TGA was obtained using a TA Instrument Thermogravimetric Analyzer, Model Q500. The general experimental conditions for TGA were: ramp from 20° C. to 600° C. at 20° C./min; nitrogen purge, gas flow at 40 mL/min followed by balance of the purge flow; sample purge flow at 60 mL/min; platinum sample pan. A weight loss of about 3.5% up to 150° C. was observed and believed to be associated with the loss of moisture and residual solvents.

[7] = high humidity about 60-85% RH, bis(4-methylbenzenesulfonate)
[8] = 0% RH, 2 days, 25° C., open vial
[9] = 5% RH, 7 days, 25° C., open vial
[10] = 10% RH, 10 days, 25° C., open vial
[11] = 30% RH, 5 days, 25° C., open vial
[12] = 75% RH, 10 days, 25° C., open vial
[13] = 85% RH, 10 days, 25° C., open vial
[14] = 90% RH, 4 days, 25° C., open vial

For `COCC1(CN[C@@H]2C[C@H]2c2ccccc2)CCN(CC2(C(=O)O)CCC2)CC1` [Form DH, 1-{[4-(methoxymethyl)-4-({[(1R,2S)-2-phenylcyclopropyl]amino}methyl)piperidin-1-yl]methyl}cyclobutanecarboxylic acid bis(4-methylbenzenesulfonate)], the “Solid form change on exposure to humidity” value ([1]; about 30-50% RH) was “change to Form HIII”, the “Solid form change on exposure to humidity” value [1, 7] was “Form HI” and the “Hygroscopicity (DVS adsorption/desorption isotherm)” value [2] was “hygroscopic”. The “Solid form collected after DVS” value ([2]; after DVS at 85% RH) was “Form HI”.
For `COCC1(CN[C@@H]2C[C@H]2c2ccccc2)CCN(CC2(C(=O)O)CCC2)CC1` [Form HI, 1-{[4-(methoxymethyl)-4-({[(1R,2S)-2-phenylcyclopropyl]amino}methyl)piperidin-1-yl]methyl}cyclobutanecarboxylic acid bis(4-methylbenzenesulfonate)], the “Hygroscopicity (DVS adsorption/desorption isotherm)” value [2] was “slightly hygroscopic”, the “% Wt Loss by TGA (25-120° C.)” value [3, 8] was 2.30% and the “DSC (° C.) (Peak Temperature)” value [3, 8] was 97.5 °C. For the same molecule, the “XRPD (solid form)” value [3, 8] was “Form DH”, the “% Wt Loss by TGA (25-120° C.)” value [3, 9] was 2.93% and the “DSC (° C.) (Peak Temperature)” value [3, 9] was 81.2 °C. For the same molecule, the “XRPD (solid form)” value [3, 9] was “Form HI”, the “% Wt Loss by TGA (25-120° C.)” value [3, 10] was 5.05% and the “DSC (° C.) (Peak Temperature)” value [3, 10] was 82.4 °C. The “XRPD (solid form)” value [3, 10] was “Form HI”, the Physical stability ([3]; 10-85% RH, 10 days, 25° C.) was “stable” and the “% Wt Loss by TGA (25-120° C.)” value [3, 11] was 5.38%. For the same molecule, the “DSC (° C.) (Peak Temperature)” value [3, 11] was 80.7 °C, the “XRPD (solid form)” value [3, 11] was “Form HI” and the “% Wt Loss by TGA (25-120° C.)” value [3, 12] was 5.30%. The “DSC (° C.) (Peak Temperature)” value [3, 12] was 79.8 °C, the “XRPD (solid form)” value [3, 12] was “Form HI” and the “% Wt Loss by TGA (25-120° C.)” value [3, 13] was 5.35%. For the same molecule, the “DSC (° C.) (Peak Temperature)” value [3, 13] was 79.9 °C, the “XRPD (solid form)” value [3, 13] was “Form HI” and the Physical stability ([3]; 90% RH, 25° C.) was “change to Form HII”. The “% Wt Loss by TGA (25-120° C.)” value [3, 14] was 6.04%, the “DSC (° C.) (Peak Temperature)” value [3, 14] was 80.0 °C and the “XRPD (solid form)” value ([3]; 90% RH, 4 days, 25° C., open vial, cell wraps over r12-r14: Form HI + Form HII (minor)) was “Form HI +”. For the same molecule, the “% Wt Loss by TGA (25-120° C.)” value ([3]; 90% RH, 10 days, 25° C., open vial) was 9.4%, the “XRPD (solid form)” value ([3]; 90% RH, 10 days, 25° C., open vial, cell wraps over r15-r16: Form HI + Form HII) was “Form HI +” and the “% Wt Loss by TGA (25-120° C.)” value ([3]; Ambient, 60 days, open vial) was 4.77%. The “DSC (° C.) (Peak Temperature)” value ([3]; Ambient, 60 days, open vial) was 79.8 °C, the “XRPD (solid form)” value ([3]; Ambient, 60 days, open vial) was “Form HI” and the Physical stability ([3]; ambient conditions, 60 days, open vial) was “stable”. The Physical stability ([3]; below 10% RH, 25° C.) was “de-hydrated”.
In the case of `COCC1(CN[C@@H]2C[C@H]2c2ccccc2)CCN(CC2(C(=O)O)CCC2)CC1` [Form HIII, 1-{[4-(methoxymethyl)-4-({[(1R,2S)-2-phenylcyclopropyl]amino}methyl)piperidin-1-yl]methyl}cyclobutanecarboxylic acid bis(4-methylbenzenesulfonate)], the “Solid form change on exposure to humidity” value [1, 7] is reported as “change to Form HI”.
With `COCC1(CN[C@@H]2C[C@H]2c2ccccc2)CCN(CC2(C(=O)O)CCC2)CC1` [Form I, 1-{[4-(methoxymethyl)-4-({[(1R,2S)-2-phenylcyclopropyl]amino}methyl)piperidin-1-yl]methyl}cyclobutanecarboxylic acid bis(4-methylbenzenesulfonate)] the “Relative stability of polymorphic forms” value [4] was “most stable polymorphic form”, the “Concentration of saturated solution” value [5] was 60000 µg/mL and the “Temperature after which significant decomposition starts (TGA)” value [6] was > 200 °C. For the same molecule, the Solid form change ([1]; drying of wet sample under ambient conditions, atmospheric moisture) was “changed to crystalline Form HI”, the “Solid form change on storage” value ([1]; storage 25° C./60% RH) was “converted to Form HI” and the “Solid form change on storage” value ([1]; storage 40° C./75% RH) was “converted to Form HI”. For the same molecule, the “Hygroscopicity (DVS adsorption/desorption isotherm)” value [2] was “hygroscopic”.
